In patent US20250269018A1, “COMBINED CANCER THERAPY WITH AN EPITHELIAL CELL ADHESION MOLECULE (EPCAM) INHIBITOR AND A HEPATOCYTE GROWTH FACTOR RECEPTOR (HGFR) INHIBITOR” (ACADEMIA SINICA, priority 2021, published 2025):
Peptide text beside a SMILES is read from it. * marks the point of attachment. Cbz = O=C(OCc1ccccc1)*

What was measured:
[1] = tested on: GSK3β, active β-catenin and Snail; experiment: Western blotting of GSK3β, active β-catenin, Snail and EMT proteins in HCT116 cells; assay type: cell-based, human
Experimental: FIGS. 4A to 4L. EpEX induces EMT and invasion by stabilizing β-catenin and Snail through decreasing GSK3β activity. (FIG. 4A) The protein expression of EMT markers and regulators was detected by Western blotting in Wild-type (WT) or EpCAM knockout (KO) HCT116 cells after EpEX treatment. (FIG. 4B) Cell invasion was examined by Transwell chamber assay with matrigel. (FIG. 4C) WT or KO HCT116 and HT29 cells were starved for 16 h, then treated with 0.5 nM of HGF with 2% FBS for 24 h. EMT-related protein expression (E-cadherin, vimentin, and Snail) was examined by Western blotting. (FIG. 4D) WT or KO HCT116 and HT29 cells were treated with HGF (0.5 nM) for 24 h. Invasion by HCT116 and HT29 cells was examined by Transwell chamber assay with matrigel. (FIG. 4E) HCT116 and HT29 cells were starved for 16 h, then treated with 0.5 nM of HGF with 2% FBS for 24 h. EMT-related protein expression (E-cadherin, Vimentin, and Snail) was examined by Western blotting. (FIG. 4F) HCT116 and HT29 cells were starved for 16 h, then treated with 0.5 nM of HGF with 2% FBS for 24 h. Cell invasion was assessed by a Transwell assay with matrigel. (FIG. 4G) HCT116 cells after shLuc and shHGFR treatment were treated with 50 nM of EpEX-His. HCT116 cells after shLuc and shHGFR treatment were treated with 50 nM of EpEX-His with 2% FBS for 24 h. EMT-related protein expression (E-cadherin, Vimentin, and Snail) was examined by Western blotting. (FIG. 4H) Cell invasion was examined by Transwell chamber assay with matrigel. (FIG. 4I) Starved HCT116 cells were treated SU (10 μM) for 1 h, followed by treatment with EpEX-His (50 nM) for 24 h. Phosphorylated GSK3β, active-β-catenin, and Snail were detected by Western blotting. (FIG. 4J) HCT116 cells were starved for 16 h, then treated with 50 nM EpEX-His for 24 min. AKT inhibitor LY294002 (25 μM), ERK inhibitor U0126 (20 μM), or PF-562271 (10 μM) were applied 1 h before EpEX treatment. Protein expression of phosphorylated GSK3β and Snail was examined by Western blotting. (FIG. 4K) HCT116 cells were starved for 16 h, then treated with 50 nM EpEX, and SU (10 μM), LY (25 μM), UO (20 μM) or PF (10 μM). Cell invasion was examined by Transwell chamber assay with matrigel. (FIG. 4L) Protein expression was analyzed by Western blotting in EpEX-His (50 nM) treated HCT116 cells after treatment with or without 2 μM GSK3β inhibitor (BIO) for 24 h. Quantification of the normalized protein expression in the right panel.
FIGS. 5A to 5I. EpEX promotes Snail protein stability through inhibition of ubiquitination-mediated proteasomal degradation. (FIG. 5A) The gene expression of EMT markers and regulators was detected by qRT-PCR in Wild-type (WT) or EpCAM knockout (KO) of HCT116 and HT29 cells. (FIG. 5B) Stability of Snail protein in WT or KO of HCT116 cells. Cells were treated with cyclohexamide (CHX) 100 μg/ml at the indicated intervals and subjected to Western blotting. (FIG. 5C) The protein expression of Snail was analyzed in WT or KO HCT116 cells by treating with or without […] MG132 (proteasome inhibitor) for 6 h, followed by Western blotting. (FIG. 5D) WT or KO HCT116 cells were treated with 10 μM MG132 for 6 h before cell collection. The lysates were subjected to immunoprecipitation using anti-Snail antibody and input. Western blotting was performed with the indicated antibodies to detect ubiquitinated Snail protein. (FIG. 5E) Stability of Snail protein in HCT116 cells after EpEX (50 nM) treatment for 24 h. Cells were treated with cyclohexamide (CHX; 100 μg/ml) for the indicated intervals and then subjected to Western blotting. (FIG. 5F) Expression of the gene encoding SNAIL was detected by qRT-PCR in HCT116 cells after EpEX (50 nM) treatment for 24 h. (FIG. 5G) The protein expression of Snail in HCT116 was analyzed cells by Western blotting after EpEX (50 nM) treatment for 24 h, and treatment with or without 10 μM MG132 (proteasome inhibitor) for 6 h. […]

[2] = tested on: GSK3β, active β-catenin and Snail; experiment: as above; assay type: cell-based, human; remark: listed apart in the source

Compound | Snail steady-state protein levels ([1]; HCT116 with or without EpEX (50 nM, 24 h), 10 μM MG132 6 h, FIG. 5G) | Snail steady-state protein levels ([1]; WT or EpCAM KO HCT116, for 6 h, FIG. 5C) | Active β-catenin and Snail steady-state protein levels ([2]; 10 μM MG132 and EpAb2-6 for 6 h, FIG. 6I) | active β-catenin and Snail protein expressions ([1]; HCT116, control and EpEX-His (50 nM) treated, 2 μM BIO 24 h, FIG. 4L) | active β-catenin and Snail proteins ([2]; EpAb2-6 and 2 μM BIO 24 h, FIG. 6H)
CC(C)C[C@@H](C=O)NC(=O)[C@H](CC(C)C)NC(=O)[C@H](CC(C)C)NC(=O)OCc1ccccc1 [MG132] (Cbz-Leu-Leu-Leu-aldehyde) | increased Snail steady-state protein levels | increased Snail steady-state protein levels | increased active β-catenin and Snail steady-state protein levels |  | 
O=C1Nc2cc(Br)ccc2/C1=C1/Nc2ccccc2/C1=N\O [BIO] |  |  |  | upregulated both in control and EpEX-treated cells | increased
